Results published in patent publication US20250147039A1, “Compounds for complexation of rare earth elements and/or s-, p-, d- block metals, their coordination compounds, peptide conjugates, method of their preparation and use thereof” (USTAV ORGANICKE CHEMIE A BIOCHEMIE AV CR V.V.I., priority 2021, published 2025).
Blank lines part the entries; values can stand above or below the molecule they belong to.

Tests used:
[1] = Dissociation of chelates in aq. 0.1M HCl at RT (acid decomplexation kinetic inertness) (Chart 20); format: physicochemical
[2] = Dissociation of chelates in aq. 6.0M HCl at 80° C. (acid decomplexation kinetic inertness) (Chart 17); format: physicochemical
[3] = Dissociation of chelates in aq. 0.1M HCl at 80° C. (acid decomplexation kinetic inertness) (Chart 19); format: physicochemical
[4] = Dissociation of chelates in aq. 1.0M HCl at 80° C. (acid decomplexation kinetic inertness) (Chart 18); format: physicochemical
[5] = Alkali metal dependent formation of 1,5-cz-Lig and 1,4-cz-Lig isomers from Lig at pH 10.2 (Chart 14); format: physicochemical; conditions: B: 1 day at 80° C., Borate/(M^I)2CO3 buffer pH 10.2; for conversion to 1,4-cz-Lig isomer, Li^I / conversion to 1,5-cz-Lig isomer, Li^I: visible analyte free precipitate
[6] = Formation of 1,5-cz-[M(Lig)] from Lig and M^III ions (metal dependent click-zip) (Charts 4, 5); format: physicochemical; conditions: MOPS/NaOH buffer pH 7.0, TD728, TD827 in 50% i-PrOH; for conversion to 1,5-cz-[M(Lig)], Y^III: TD714 sum of two diastereoisomers
[7] = Formation of 1,5-cz-[Ln(Lig)] from Lig and Ln^III ions (metal dependent click-zip), MOPS/NaOH buffer pH 7.0, analytical HPLC (Charts 1, 2); conditions: MOPS/NaOH buffer pH 7.0

fraction of intact chelate ([1]; 1 month): 100%
fraction of intact chelate ([1]; 1 week): 100%
fraction of intact chelate ([1]; 1 hour): 100%
fraction of intact chelate ([1]; 1 day): 100%
fraction of intact chelate ([2]; 1 month): 98%
fraction of intact chelate ([2]; 1 week): 99%
fraction of intact chelate ([2]; 1 hour): 100%
fraction of intact chelate ([2]; 1 day): 100%
fraction of intact chelate ([3]; 1 month): 100%
fraction of intact chelate ([3]; 1 week): 100%
fraction of intact chelate ([3]; 1 hour): 100%
fraction of intact chelate ([3]; 1 day): 100%
fraction of intact chelate ([4]; 1 month): 100%
fraction of intact chelate ([4]; 1 week): 100%
fraction of intact chelate ([4]; 1 hour): 100%
fraction of intact chelate ([4]; 1 day): 100%
Structure (SMILES): O=C1C[N@@]2CC[N@]3CC[N@@](CC[N@](CC2)Cc2cccc(n2)-c2cnnn2Cc2cc(-c4ccccc4)cc(n2)C3)CC(=O)[O][Lu][O]1 [TD522]

conversion to 1,4-cz-Lig isomer, Cs^I [5]: 31%
conversion to 1,4-cz-Lig isomer, K^I [5]: 32%
conversion to 1,4-cz-Lig isomer, Na^I [5]: 26%
conversion to 1,4-cz-Lig isomer, Rb^I [5]: 32%
conversion to 1,5-cz-Lig isomer, Cs^I [5]: 6%
conversion to 1,5-cz-Lig isomer, K^I [5]: 7%
conversion to 1,5-cz-Lig isomer, Na^I [5]: 25%
conversion to 1,5-cz-Lig isomer, Rb^I [5]: 7%
conversion to 1,4-cz-Lig isomer, Li^I [5]: 19%
conversion to 1,5-cz-Lig isomer, Li^I [5]: 10%
Structure (SMILES): C#Cc1cccc(CN2CCN(CP(=O)(O)O)CCN(Cc3cccc(CN=[N+]=[N-])n3)CCN(CP(=O)(O)O)CC2)n1 [TD581]

Structure (SMILES): C#Cc1cccc(CN2CCN(CP(=O)(O)OCC)CCN(Cc3cccc(CN=[N+]=[N-])n3)CCN(CP(=O)(O)OCC)CC2)n1 [TD582]
conversion to 1,5-cz-[M(Lig)], Sc^III ([6]; 1 week at 80° C.): 0%
conversion to 1,5-cz-[M(Lig)], Y^III ([6]; 1 week at 80° C.): 68%
conversion to 1,5-cz-[M(Lig)], Sc^III ([6]; 1 hour at 80° C.): 0%
conversion to 1,5-cz-[M(Lig)], Y^III ([6]; 1 hour at 80° C.): 11%
conversion to 1,5-cz-[Ln(Lig)], Ce^III ([7]; after 1 week at 80° C.): 0%
conversion to 1,5-cz-[Ln(Lig)], Ce^III ([7]; after 1 hour at 80° C.): 0%
conversion to 1,5-cz-[Ln(Lig)], Dy^III ([7]; after 1 week at 80° C.): 85%
conversion to 1,5-cz-[Ln(Lig)], Dy^III ([7]; after 1 hour at 80° C.): 18%
conversion to 1,5-cz-[Ln(Lig)], Er^III ([7]; after 1 week at 80° C.): 74%
conversion to 1,5-cz-[Ln(Lig)], Er^III ([7]; after 1 hour at 80° C.): 15%
conversion to 1,5-cz-[Ln(Lig)], Eu^III ([7]; after 1 week at 80° C.): 87%
conversion to 1,5-cz-[Ln(Lig)], Eu^III ([7]; after 1 hour at 80° C.): 14%
conversion to 1,5-cz-[Ln(Lig)], Gd^III ([7]; after 1 week at 80° C.): 86%
conversion to 1,5-cz-[Ln(Lig)], Gd^III ([7]; after 1 hour at 80° C.): 15%
conversion to 1,5-cz-[Ln(Lig)], Ho^III ([7]; after 1 week at 80° C.): 79%
conversion to 1,5-cz-[Ln(Lig)], Ho^III ([7]; after 1 hour at 80° C.): 16%
conversion to 1,5-cz-[Ln(Lig)], La^III ([7]; after 1 week at 80° C.): 0%
conversion to 1,5-cz-[Ln(Lig)], La^III ([7]; after 1 hour at 80° C.): 0%
conversion to 1,5-cz-[Ln(Lig)], Lu^III ([7]; after 1 week at 80° C.): 26%
conversion to 1,5-cz-[Ln(Lig)], Lu^III ([7]; after 1 hour at 80° C.): 5%
conversion to 1,5-cz-[Ln(Lig)], Nd^III ([7]; after 1 week at 80° C.): 60%
conversion to 1,5-cz-[Ln(Lig)], Nd^III ([7]; after 1 hour at 80° C.): 6%
conversion to 1,5-cz-[Ln(Lig)], Pr^III ([7]; after 1 week at 80° C.): 17%
conversion to 1,5-cz-[Ln(Lig)], Pr^III ([7]; after 1 hour at 80° C.): 5%
conversion to 1,5-cz-[Ln(Lig)], Sm^III ([7]; after 1 week at 80° C.): 86%
conversion to 1,5-cz-[Ln(Lig)], Sm^III ([7]; after 1 hour at 80° C.): 12%
conversion to 1,5-cz-[Ln(Lig)], Tb^III ([7]; after 1 week at 80° C.): 82%
conversion to 1,5-cz-[Ln(Lig)], Tb^III ([7]; after 1 hour at 80° C.): 18%
conversion to 1,5-cz-[Ln(Lig)], Tm^III ([7]; after 1 week at 80° C.): 68%
conversion to 1,5-cz-[Ln(Lig)], Tm^III ([7]; after 1 hour at 80° C.): 14%
conversion to 1,5-cz-[Ln(Lig)], Yb^III ([7]; after 1 week at 80° C.): 59%
conversion to 1,5-cz-[Ln(Lig)], Yb^III ([7]; after 1 hour at 80° C.): 12%
conversion to 1,4-cz-Lig isomer, Cs^I [5]: 26%
conversion to 1,4-cz-Lig isomer, K^I [5]: 25%
conversion to 1,4-cz-Lig isomer, Na^I [5]: 2%
conversion to 1,4-cz-Lig isomer, Rb^I [5]: 25%
conversion to 1,5-cz-Lig isomer, Cs^I [5]: 10%
conversion to 1,5-cz-Lig isomer, K^I [5]: 11%
conversion to 1,5-cz-Lig isomer, Na^I [5]: 69%
conversion to 1,5-cz-Lig isomer, Rb^I [5]: 10%
conversion to 1,4-cz-Lig isomer, Li^I [5]: 3%
conversion to 1,5-cz-Lig isomer, Li^I [5]: 53%

fraction of intact chelate ([1]; 1 month): 100%
fraction of intact chelate ([1]; 1 week): 100%
fraction of intact chelate ([1]; 1 hour): 100%
fraction of intact chelate ([1]; 1 day): 100%
fraction of intact chelate ([2]; 1 month): 0%
fraction of intact chelate ([2]; 1 week): 0%
fraction of intact chelate ([2]; 1 hour): 0%
fraction of intact chelate ([2]; 1 day): 0%
fraction of intact chelate ([3]; 1 month): 21%
fraction of intact chelate ([3]; 1 week): 83%
fraction of intact chelate ([3]; 1 hour): 100%
fraction of intact chelate ([3]; 1 day): 97%
fraction of intact chelate ([4]; 1 month): 0%
fraction of intact chelate ([4]; 1 week): 0%
fraction of intact chelate ([4]; 1 hour): 92%
fraction of intact chelate ([4]; 1 day): 10%
Structure (SMILES): O=C1C[N@@]2CC[N@]3CC[N@@](CC[N@](CC2)Cc2cccc(n2)-c2cnnn2Cc2cc(-c4ccccc4)cc(n2)C3)CC(=O)[O][Eu][O]1 [TD599]
